Blank lines part the entries; values can stand above or below the compound they belong to. Calls of active or inactive are those of the source. The calls are words filed in the database; no cut-off is given here.
Key:
Ramos = experiment: Antiproliferative activity against human Ramos cells assessed as inhibition of cell proliferation measured after 72 hrs by MTT assay; assay type: functional, cell-based
K562 = experiment: Antiproliferative activity against human K562 cells assessed as inhibition of cell proliferation measured after 72 hrs by MTT assay; assay type: functional, cell-based; settings: K562, 72 h
SK-OV-3 [1] = experiment: Antiproliferative activity against human SK-OV-3 cells assessed as inhibition of cell proliferation measured after 72 hrs by MTT assay; assay type: functional, cell-based; settings: SK-OV-3, 72 h
[2] = Toxicity in mouse xenografted with human SK-OV-3 cells assessed as effect on body weight at 10 mg/kg, po administered for 30 days; assay type: organism-based; settings: in vivo, 720 h, time 30 day
SK-OV-3 [3] = experiment: Induction of cell cycle arrest in human SK-OV-3 cells assessed as accumulation of cells at G2/M phase at 1 nM incubated for 24 hrs by PI staining based flow cytometry analysis (reference value: 28.94%); assay type: functional
[4] = Toxicity in mouse xenografted with human SK-OV-3 cells assessed as effect on body weight at 5 mg/kg, po administered for 30 days; assay type: organism-based; settings: in vivo, 720 h, time 30 day
Tubulin (Homo sapiens) = Tubulin (Homo sapiens) (UniProt P68371+Q9H4B7+P0DPH7+P68366+Q13509+Q71U36+P04350+Q3ZCM7+P07437+P68363+Q9BQE3+Q6PEY2+Q13885+Q9BVA1+Q9BUF5); experiment: Inhibition of tubulin polymerization in human SK-OV-3 cells at 5 uM incubated for 16 hrs by fluorescence microscopic analysis; assay type: cell-based
[5] = Half life in Sprague-Dawley rat at 5 mg/kg, po measured up to 24 hrs by LC/MS/MS analysis; assay type: ADME, organism-based; settings: in vivo
SK-OV-3 [6] = experiment: Induction of cell cycle arrest in human SK-OV-3 cells assessed as accumulation of cells at G2/M phase at 10 nM incubated for 24 hrs by PI staining based flow cytometry analysis (reference value: 28.94%); assay type: functional
[7] = AUC (0 to t) in Sprague-Dawley rat at 5 mg/kg, po measured up to 24 hrs by LC/MS/MS analysis; assay type: ADME, organism-based; design: route oral, dose 5 mg/kg, time <=24; settings: in vivo
[8] = Cmax in Sprague-Dawley rat at 5 mg/kg, po measured up to 24 hrs by LC/MS/MS analysis; assay type: ADME, organism-based; design: route oral, dose 5 mg/kg, time <=24; settings: in vivo
[9] = Tmax in Sprague-Dawley rat at 5 mg/kg, po measured up to 24 hrs by LC/MS/MS analysis; assay type: ADME, organism-based; settings: in vivo
SK-OV-3 [10] = experiment: Induction of mitotic block in human SK-OV-3 cells at 10 to 30 nM in presence of colchicine measured immediately by flow cytometry analysis; assay type: functional, cell-based; settings: dose 10-30 nM
SK-OV-3 [11] = experiment: Induction of cell cycle arrest in human SK-OV-3 cells assessed as accumulation od cells at G2/M phase at 5 nM incubated for 24 hrs by PI staining based flow cytometry analysis (reference value: 28.94%); assay type: functional
[12] = target: Focal adhesion kinase 1 (Homo sapiens) (UniProt Q05397); experiment: Inhibition of FAK phosphorylation at […] residue in human SK-OV-3 cells incubated for 24 hrs by Western blot analysis; assay type: cell-based
Chain of Focal adhesion kinase 1 (Homo sapiens) (Q05397 2-1052 limits assumed): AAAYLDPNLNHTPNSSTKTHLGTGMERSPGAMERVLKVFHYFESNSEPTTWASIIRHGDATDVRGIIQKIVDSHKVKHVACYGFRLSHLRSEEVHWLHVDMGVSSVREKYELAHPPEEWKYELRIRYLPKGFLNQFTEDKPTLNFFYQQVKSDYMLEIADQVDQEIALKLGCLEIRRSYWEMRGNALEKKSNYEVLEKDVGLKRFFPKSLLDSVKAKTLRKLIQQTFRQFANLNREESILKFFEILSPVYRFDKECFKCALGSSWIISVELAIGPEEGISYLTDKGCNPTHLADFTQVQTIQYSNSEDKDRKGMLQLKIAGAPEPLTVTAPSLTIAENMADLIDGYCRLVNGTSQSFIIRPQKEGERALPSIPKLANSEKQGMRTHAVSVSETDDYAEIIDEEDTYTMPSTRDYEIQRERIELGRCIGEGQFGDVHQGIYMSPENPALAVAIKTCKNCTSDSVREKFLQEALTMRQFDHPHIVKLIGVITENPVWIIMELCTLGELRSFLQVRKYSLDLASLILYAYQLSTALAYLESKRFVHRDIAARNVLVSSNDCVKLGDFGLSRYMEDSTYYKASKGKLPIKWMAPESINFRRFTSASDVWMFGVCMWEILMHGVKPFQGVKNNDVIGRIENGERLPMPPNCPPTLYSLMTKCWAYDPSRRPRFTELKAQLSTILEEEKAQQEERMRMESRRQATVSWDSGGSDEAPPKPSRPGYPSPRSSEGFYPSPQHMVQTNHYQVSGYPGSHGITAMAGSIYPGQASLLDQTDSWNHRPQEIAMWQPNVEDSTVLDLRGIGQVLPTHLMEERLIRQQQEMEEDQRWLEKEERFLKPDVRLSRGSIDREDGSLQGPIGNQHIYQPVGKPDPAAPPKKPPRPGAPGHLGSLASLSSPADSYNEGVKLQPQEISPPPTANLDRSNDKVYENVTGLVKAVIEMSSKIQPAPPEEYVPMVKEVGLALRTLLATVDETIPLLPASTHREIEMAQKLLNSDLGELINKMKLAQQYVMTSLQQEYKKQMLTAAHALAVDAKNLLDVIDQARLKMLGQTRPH

SK-OV-3 [13] = experiment: Induction of cell cycle arrest in human SK-OV-3 cells assessed as accumulation of cells at S phase at 1 nM incubated for 24 hrs by PI staining based flow cytometry analysis (reference value: 21.4 %); assay type: functional
[14] = target: Proto-oncogene tyrosine-protein kinase Src (Homo sapiens) (UniProt P12931); experiment: Inhibition of Src kinase phosphorylation at Tyr416/419 residue in human SK-OV-3 cells incubated for 24 hrs by Western blot analysis; assay type: cell-based
Chain of Proto-oncogene tyrosine-protein kinase Src (Homo sapiens) (P12931 2-536 limits assumed): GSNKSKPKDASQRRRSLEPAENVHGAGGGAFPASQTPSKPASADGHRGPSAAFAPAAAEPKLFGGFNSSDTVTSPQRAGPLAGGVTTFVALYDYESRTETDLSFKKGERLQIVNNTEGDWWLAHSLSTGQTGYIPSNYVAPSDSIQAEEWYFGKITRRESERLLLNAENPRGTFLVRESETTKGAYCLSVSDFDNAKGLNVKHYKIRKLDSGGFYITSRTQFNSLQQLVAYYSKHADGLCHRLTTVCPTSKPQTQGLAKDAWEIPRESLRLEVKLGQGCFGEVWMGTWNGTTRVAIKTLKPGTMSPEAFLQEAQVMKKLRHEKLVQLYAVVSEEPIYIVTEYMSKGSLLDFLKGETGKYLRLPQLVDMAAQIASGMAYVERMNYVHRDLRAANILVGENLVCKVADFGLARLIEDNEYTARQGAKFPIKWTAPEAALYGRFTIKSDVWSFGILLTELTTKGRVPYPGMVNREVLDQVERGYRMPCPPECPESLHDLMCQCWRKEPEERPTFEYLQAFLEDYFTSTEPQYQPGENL

SK-OV-3 [15] = experiment: Induction of cell cycle arrest in human SK-OV-3 cells assessed as accumulation of cells at G0/G1 phase at 10 nM incubated for 24 hrs by PI staining based flow cytometry analysis (reference value: 49.60 %); assay type: functional
SK-OV-3 [16] = experiment: Induction of cell cycle arrest in human SK-OV-3 cells assessed as accumulation of cells at S phase at 10 nM incubated for 24 hrs by PI staining based flow cytometry analysis (reference value: 21.4 %); assay type: functional
[17] = Antitumor activity against human SK-OV-3 cells xenografted in nude mouse assessed as tumor growth inhibition at 10 mg/kg, po measured every 3 days for 1 month by vernier caliper analysis relative to control; assay type: functional; settings: SK-OV-3, po, 730 h, time 1 months, read-out: TGI
[18] = Antitumor activity against human SK-OV-3 cells xenografted in nude mouse assessed as tumor growth inhibition at 5 mg/kg, po measured every 3 days for 1 month by vernier caliper analysis relative to control; assay type: functional; settings: SK-OV-3, po, 730 h, time 1 months, read-out: TGI
[19] = Half life in human liver microsomes; assay type: ADME, Microsome
[20] = Antitumor activity against mouse C26 cells xenografted in BALB/c mouse assessed as tumor growth inhibition at 10 mg/kg, po measured every 2 days for 10 days by vernier caliper analysis relative to control; assay type: functional; settings: 240 h, time 10 day, read-out: TGI
Tubulin = experiment: Binding affinity to tubulin (unknown origin) assessed as dissociation constant by tryptophan based binding assay; assay type: protein-complex assay, Homo sapiens
[21] = Toxicity in C57 mouse at 40 mg/kg, po administered twice daily; assay type: organism-based; settings: in vivo
SK-OV-3 [22] = experiment: Induction of mitotic block in human SK-OV-3 cells at 300 nM measured after 10 hrs by flow cytometry analysis; assay type: functional, cell-based
SK-OV-3 [23] = experiment: Induction of cell cycle arrest in human SK-OV-3 cells assessed as accumulation of cells at G0/G1 phase at 1 nM incubated for 24 hrs by PI staining based flow cytometry analysis (Rvb= 49.60%); assay type: functional
[24] = Intrinsic clearance in human liver microsomes; assay type: ADME, Microsome
SK-OV-3 [25] = experiment: Induction of cell cycle arrest in human SK-OV-3 cells assessed as accumulation of cells at G0/G1 phase at 5 nM incubated for 24 hrs by PI staining based flow cytometry analysis (reference value: 49.60 %); assay type: functional
[26] = Clearance in Sprague-Dawley rat at 5 mg/kg, po measured up to 24 hrs by LC/MS/MS analysis; assay type: ADME, organism-based; settings: in vivo
[27] = Oral bioavailability in Sprague-Dawley rat at 5 mg/kg measured up to 24 hrs by LC/MS/MS analysis; assay type: ADME, organism-based; settings: in vivo
SK-OV-3 [28] = experiment: Induction of cell cycle arrest in human SK-OV-3 cells assessed as accumulation of cells at S phase at 5 nM incubated for 24 hrs by PI staining based flow cytometry analysis (reference value: 21.4 %); assay type: functional

IC50 (Ramos): 15.8 nM
IC50 (K562): 13 nM
IC50 (SK-OV-3 [1]): 8.1 nM
Structure (SMILES): COC1CCN(CCOc2ccc(-c3ccc(CC(=O)NCc4ccccc4)nc3)cc2)CC1

IC50 (Ramos): > 100 nM
IC50 (K562): > 100 nM
IC50 (SK-OV-3 [1]): 80.2 nM
Structure (SMILES): O=C(Cc1ccc(-c2ccc(OCCCN3C[C@@H]4C[C@H]3CO4)cc2)cn1)NCc1ccccc1

IC50 (Ramos): 7.3 nM
IC50 (K562): 14.4 nM
IC50 (SK-OV-3 [1]): 4 nM
Structure (SMILES): CC(=O)N1CCN(CCOc2ccc(-c3ccc(CC(=O)NCc4ccccc4)nc3)cc2)CC1

IC50 (Ramos): 25.7 nM
IC50 (K562): 29.4 nM
IC50 (SK-OV-3 [1]): 12.6 nM
Structure (SMILES): O=C(Cc1ccc(-c2ccc(OCCN3CCN(C(=O)[C@H]4C[C@@H]4F)CC3)cc2)cn1)NCc1ccccc1

IC50 (Ramos): > 100 nM
IC50 (K562): 34.1 nM
IC50 (SK-OV-3 [1]): 97.5 nM
Structure (SMILES): O=C(Cc1ccc(-c2ccc(OCCN3CCC4(CC3)CC4)cc2)cn1)NCc1ccccc1

IC50 (Ramos): 36.3 nM
IC50 (K562): 39.9 nM
IC50 (SK-OV-3 [1]): 14.5 nM
Structure (SMILES): CCN1CCN(CCOc2ccc(-c3ccc(CC(=O)NCc4ccccc4)nc3)cc2)CC1

inhibition (Tubulin (Homo sapiens)): Active
half-life [5]: 231 min
AUC(0-t) at 24 h [7]: 1050 ng·h/mL
Cmax [8]: 398 ng/mL
IC50 (Ramos): 1.4 nM
Tmax [9]: 19.8 min
inhibition [12]: Dose-Dependent Effect
inhibition [14]: Dose-Dependent Effect
half-life [19]: 27.8 min
Kd (Tubulin): 610 nM
CLH [24]: 49.8 mL·min/g
CL/F [26]: 80.2 mL/min/kg
IC50 (K562): 1 nM
bioavailability [27]: 24.3%
IC50 (SK-OV-3 [1]): 0.61 nM
Structure (SMILES): O=C(Cc1ccc(-c2ccc(OCCN3CCN(C(=O)CC4CC4)CC3)cc2)cn1)NCc1ccccc1
Activity [2]: Non-Toxic
Activity (SK-OV-3 [3]): 32.11%
Activity [4]: Non-Toxic
Activity (SK-OV-3 [6]): 72.04%
Activity (SK-OV-3 [10]): Active
Activity (SK-OV-3 [11]): 39.47%
Activity (SK-OV-3 [13]): 21.96%
Activity (SK-OV-3 [15]): 12.1%
Activity (SK-OV-3 [16]): 15.86%
inhibition in vivo at 10 mg/kg [17]: 70%
inhibition in vivo at 5 mg/kg [18]: 52%
inhibition in vivo at 10 mg/kg [20]: 71%
Activity [21]: Non-Toxic
Activity (SK-OV-3 [22]): Active
Activity (SK-OV-3 [23]): 45.93%
Activity (SK-OV-3 [25]): 39.12%
Activity (SK-OV-3 [28]): 21.42%

IC50 (Ramos): 25.8 nM
IC50 (K562): 16.2 nM
IC50 (SK-OV-3 [1]): 19.5 nM
Structure (SMILES): O=C(Cc1ccc(-c2ccc(OCCN3C[C@@H]4C[C@H]3CO4)cc2)cn1)NCc1ccccc1

IC50 (Ramos): 43.5 nM
IC50 (K562): 29.6 nM
IC50 (SK-OV-3 [1]): 10.4 nM
Structure (SMILES): O=C(Cc1ccc(-c2ccc(OCCCCN3CCOCC3)cc2)cn1)NCc1ccccc1

IC50 (Ramos): 23.8 nM
IC50 (K562): 16.5 nM
IC50 (SK-OV-3 [1]): 6.7 nM
Structure (SMILES): O=C(Cc1ccc(-c2ccc(OCCN3CCC4(CC3)OCCO4)cc2)cn1)NCc1ccccc1

IC50 (Ramos): 19.6 nM
IC50 (K562): 29.2 nM
IC50 (SK-OV-3 [1]): 9.1 nM
Structure (SMILES): O=C(Cc1ccc(-c2ccc(OCCN3CC4CC4C3)cc2)cn1)NCc1ccccc1 (stereo unspecified)

half-life [5]: 139 min
AUC(0-t) at 24 h [7]: 383 ng·h/mL
Cmax [8]: 484 ng/mL
IC50 (Ramos): 1.5 nM
Tmax [9]: 8.4 min
inhibition [12]: Dose-Dependent Effect
inhibition [14]: Dose-Dependent Effect
half-life [19]: 20.6 min
Kd (Tubulin): 630 nM
CLH [24]: 67.4 mL·min/g
CL/F [26]: 209 mL/min/kg
IC50 (K562): 2.3 nM
bioavailability [27]: 13.3%
IC50 (SK-OV-3 [1]): 0.59 nM
Structure (SMILES): O=C(Cc1ccc(-c2ccc(OCCN3CCN(C(=O)C4CCC4)CC3)cc2)cn1)NCc1ccccc1
inhibition in vivo at 10 mg/kg [20]: 32%
Activity [21]: Non-Toxic

IC50 (Ramos): 64.4 nM
IC50 (K562): 41.5 nM
IC50 (SK-OV-3 [1]): 165 nM
Structure (SMILES): CC1(C)C2CN(CCOc3ccc(-c4ccc(CC(=O)NCc5ccccc5)nc4)cc3)CC21 (stereo unspecified)

From ChEMBL document CHEMBL5033996, “Design, Synthesis, and Bioactivity Evaluation of Dual-Target Inhibitors of Tubulin and Src Kinase Guided by Crystal Structure” (J Med Chem, 2021)
